Test results from the supplement of paper PMC10307832.

Tests used:
Assay in all cases: relative viability (nuclei count vs DMSO), 5 days (fraction); higher = more cells survive
NCI-H1355 = system: NCI-H1355
Outline: (§1)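 Relative viability was taken as the ratio of nuclei in treated wells to nuclei in vehicle wells. Lung cancer cell lines in 1536-well plates received compounds by pin tool one day after seeding, either one drug alone or a fixed anchor-drug dose plus five library-drug doses (not always all listed) in √10 steps. Nuclei were counted on 4× images after 5 days of treatment, and values are medians of duplicate plates.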

NCI-H838 = system: NCI-H838
Outline: as §1

HARA = system: HARA
Outline: as §1

NCI-H2009 = system: NCI-H2009
Outline: as §1

SK-MES-1 = system: SK-MES-1
Outline: as §1

PC-14 = system: PC-14
Outline: as §1

COR-L 105 = system: COR-L 105
Outline: as §1

NCI-H1993 = system: NCI-H1993
Outline: as §1

EKVX = system: EKVX
Outline: as §1

NCI-H2170 = system: NCI-H2170
Outline: as §1

NCI-H1755 = system: NCI-H1755
Outline: as §1

NCI-H2347 = system: NCI-H2347
Outline: as §1

COR-L23 = system: COR-L23
Outline: as §1

NCI-H1734 = system: NCI-H1734
Outline: as §1

UMC-11 = system: UMC-11
Outline: as §1

NCI-H647 = system: NCI-H647
Outline: as §1

NCI-H1395 = system: NCI-H1395
Outline: as §1

HOP-62 = system: HOP-62
Outline: as §1

NCI-H2228 = system: NCI-H2228
Outline: as §1

HCC-15 = system: HCC-15
Outline: as §1

NCI-H358 = system: NCI-H358
Outline: as §1

NCI-H1793 = system: NCI-H1793
Outline: as §1

## O=C(O)c1ccc(-c2c[nH]c3ncc(-c4ccccc4)cc23)cc1C1CCCC1 + Cc1nc(NC(=O)N2CCC[C@H]2C(N)=O)sc1-c1ccnc(C(C)(C)C(F)(F)F)c1 [Alpelisib] (partner 2 µM)
NCI-H1355; first compound 0.04 µM
  relative viability: 0.795
NCI-H1355; first compound 0.1265 µM
  relative viability: 0.804
NCI-H1355; first compound 0.4 µM
  relative viability: 0.819
NCI-H1355; first compound 1.265 µM
  relative viability: 0.621
NCI-H838; first compound 0.04 µM
  relative viability: 1.08
NCI-H838; first compound 0.1265 µM
  relative viability: 1.13
NCI-H838; first compound 0.4 µM
  relative viability: 1.11
NCI-H838; first compound 1.265 µM
  relative viability: 1.02
HARA; first compound 0.04 µM
  relative viability: 0.775
HARA; first compound 0.1265 µM
  relative viability: 0.988
HARA; first compound 0.4 µM
  relative viability: 0.812
HARA; first compound 1.265 µM
  relative viability: 0.707
NCI-H2009; first compound 0.04 µM
  relative viability: 1.17
NCI-H2009; first compound 0.1265 µM
  relative viability: 1.16
NCI-H2009; first compound 0.4 µM
  relative viability: 1.09
NCI-H2009; first compound 1.265 µM
  relative viability: 0.955
SK-MES-1; first compound 0.04 µM
  relative viability: 0.83
SK-MES-1; first compound 0.1265 µM
  relative viability: 1.01
SK-MES-1; first compound 0.4 µM
  relative viability: 0.834
SK-MES-1; first compound 1.265 µM
  relative viability: 0.803
PC-14; first compound 0.04 µM
  relative viability: 0.933
PC-14; first compound 0.1265 µM
  relative viability: 0.897
PC-14; first compound 0.4 µM
  relative viability: 0.971
PC-14; first compound 1.265 µM
  relative viability: 0.886
COR-L 105; first compound 0.04 µM
  relative viability: 0.893
COR-L 105; first compound 0.1265 µM
  relative viability: 1.02
COR-L 105; first compound 0.4 µM
  relative viability: 1.04
COR-L 105; first compound 1.265 µM
  relative viability: 0.79
NCI-H1993; first compound 0.04 µM
  relative viability: 0.656
NCI-H1993; first compound 0.4 µM
  relative viability: 0.68
NCI-H1993; first compound 1.265 µM
  relative viability: 0.594
EKVX; first compound 0.04 µM
  relative viability: 0.984
EKVX; first compound 0.1265 µM
  relative viability: 0.966
EKVX; first compound 0.4 µM
  relative viability: 0.911
EKVX; first compound 1.265 µM
  relative viability: 0.812
NCI-H2170; first compound 0.04 µM
  relative viability: 0.812
NCI-H2170; first compound 0.1265 µM
  relative viability: 0.803
NCI-H2170; first compound 0.4 µM
  relative viability: 0.774
NCI-H2170; first compound 1.265 µM
  relative viability: 0.584
NCI-H1755; first compound 0.04 µM
  relative viability: 0.952
NCI-H1755; first compound 0.1265 µM
  relative viability: 1.02
NCI-H1755; first compound 0.4 µM
  relative viability: 0.98
NCI-H1755; first compound 1.265 µM
  relative viability: 0.923
NCI-H2347; first compound 0.04 µM
  relative viability: 1.12
NCI-H2347; first compound 0.1265 µM
  relative viability: 1.13
NCI-H2347; first compound 0.4 µM
  relative viability: 1.11
NCI-H2347; first compound 1.265 µM
  relative viability: 0.81
COR-L23; first compound 0.04 µM
  relative viability: 0.79
COR-L23; first compound 0.1265 µM
  relative viability: 0.745
COR-L23; first compound 0.4 µM
  relative viability: 0.742
COR-L23; first compound 1.265 µM
  relative viability: 0.61
NCI-H1734; first compound 0.04 µM
  relative viability: 0.74
NCI-H1734; first compound 0.1265 µM
  relative viability: 0.683
NCI-H1734; first compound 0.4 µM
  relative viability: 0.598
NCI-H1734; first compound 1.265 µM
  relative viability: 0.664
UMC-11; first compound 0.04 µM
  relative viability: 0.938
UMC-11; first compound 0.1265 µM
  relative viability: 1.06
UMC-11; first compound 0.4 µM
  relative viability: 1.02
UMC-11; first compound 1.265 µM
  relative viability: 0.929
NCI-H647; first compound 0.04 µM
  relative viability: 1.14
NCI-H647; first compound 0.1265 µM
  relative viability: 1.24
NCI-H647; first compound 0.4 µM
  relative viability: 1.02
NCI-H647; first compound 1.265 µM
  relative viability: 0.766
NCI-H1395; first compound 0.04 µM
  relative viability: 1.35
NCI-H1395; first compound 0.1265 µM
  relative viability: 1.01
NCI-H1395; first compound 0.4 µM
  relative viability: 1.1
NCI-H1395; first compound 1.265 µM
  relative viability: 0.769
HOP-62; first compound 0.04 µM
  relative viability: 0.709
HOP-62; first compound 0.1265 µM
  relative viability: 1.02
HOP-62; first compound 0.4 µM
  relative viability: 0.942
HOP-62; first compound 1.265 µM
  relative viability: 0.922
NCI-H2228; first compound 0.04 µM
  relative viability: 0.755
NCI-H2228; first compound 0.1265 µM
  relative viability: 0.787
NCI-H2228; first compound 0.4 µM
  relative viability: 0.552
NCI-H2228; first compound 1.265 µM
  relative viability: 0.468
HCC-15; first compound 0.04 µM
  relative viability: 0.956
HCC-15; first compound 0.1265 µM
  relative viability: 0.837
HCC-15; first compound 0.4 µM
  relative viability: 0.849
HCC-15; first compound 1.265 µM
  relative viability: 0.49
NCI-H358; first compound 0.04 µM
  relative viability: 0.767
NCI-H358; first compound 0.1265 µM
  relative viability: 0.904
NCI-H358; first compound 0.4 µM
  relative viability: 0.708
NCI-H358; first compound 1.265 µM
  relative viability: 0.381
NCI-H1793; first compound 0.04 µM
  relative viability: 0.622
NCI-H1793; first compound 0.1265 µM
  relative viability: 0.706
NCI-H1793; first compound 0.4 µM
  relative viability: 0.805
NCI-H1793; first compound 1.265 µM
  relative viability: 0.754
